Tests used:
[1] = test system: Schaffer collateral (SC)-CA1 synapses; assay: LTP recordings on horizontal hippocampal slices (fEPSP amplitude after high-frequency stimulation); type: in vivo, mice
Procedure: (§1) C57BL/6 mice of either sex (4-6 months of age; n=6 per group) received vehicle or BACE1 inhibitors, Lanabecestat (AZD3293) solution at 0.25 mg/kg or 0.5 mg/kg) via oral gavage (Eketjall et al., 2016b). For Verubescstat, 3mg/kg dose was used and delivered orally via gavage (Kennedy et al., 2016). Treatment usually last 2-4 months. The mGluR1 positive allosteric modulator Ro0711401 at 10 mg/kg was given as intraperitoneal injections (IP) 1 hour before decapitation for LTP experiments (Notartomaso et al., 2013). For behavioral assays, Ro0711401 was deliver via IP injection at 12-hour intervals for 6-8 weeks. The mGluR1/5 positive allosteric modulator CHPG was mixed in aCSF and used during recording LTP. The drug was applied in a bath during baseline recording for at least for 30 minutes before HFS stimulation was applied and LTP was recorded (Le Duigou and Kullmann, 2011).
Acute brain slices were prepared as previously described (Hu et al., 2018). Briefly, the mice were decapitated and the brains were immersed in low-calcium artificial cerebrospinal fluid (aCSF) containing (in mM): 125 NaCl, 2.5 KCl, 10 glucose, 25 NaHCO3, 1.25 NaH2PO4, 0.4 L-ascorbic acid, 3 myo-inositol, 2 Na-pyruvate, 3 MgCl2 and 0.1 CaCl2 continuously bubbled with 95% O2 and 5% CO2 (pH≈7.3). Animals were decapitated with a guillotine and the brain was quickly removed to an ice-cold aCSF chamber with constant bubbling of 95% O2 and 5% CO2. Acute horizontal brain slices containing the hippocampus were obtained using a Campden 7000 smz-2 vibratome from 4-7-month-old mice at 350 μm thick. Slices were immediately transferred to an incubation beaker containing normal aCSF (same as the low-calcium aCSF except that 1 mM MgCl2 and 1, 1.2, or 2 mM CaCl2 were used) at 30° C., continuously bubbled with 95% O2 and 5% CO2. Slices were allowed to recover for 1 hour and then were transferred to an MED-64 recording chamber with the same aCSF solution at ≈30° C., maintained by MED ThermoConnector (Automate Scientific) with continuous aCSF perfusion at 2 ml/min.
LTP recordings on hippocampal slices were performed according to previously-described procedures (Shimono et al., 2002; Baba et al., 2003; Itoh et al., 2005). Upon obtaining horizontal hippocampal slices from the brains of mice, the prepared slices were then placed onto the center of an MED probe (MED-P515A; AutoMate™ Scientific) with continuous perfusion of aCSF and bubbling of 95% O2 and 5% CO2. The device has an array arranged in an 8×8 pattern of 64 planar microelectrodes across a hippocampal slice. Each electrode is 20×20 μm with an interelectrode distance of 150 μm. A MED-A64HE1S head amplifier and a MED-A64MD1 main amplifier, run by Mobius software, were used for data acquisition and analysis. SCs to CA1 synapses were typically analyzed for LTP assays. fEPSPs caused by stimulation were recorded at a 20-kHz sampling rate within the CA1 subregion of the hippocampus. Control fEPSPs were recorded for at least 10 min before the conditioning stimulation, using a response ˜50% of the maximum. After a stable baseline was established, LTP was induced with three trains of 100 Hz for 1 s with an intertrain interval F of 20 s. Field potential amplitudes were then measured. Data are expressed as mean±SEM. Synaptic strength was evaluated by measuring changes in the fEPSP amplitude relative to baseline. Statistics were calculated by Student's t tests.

[2] = cited from earlier work
[3] = test system: mice (WT BACE1+/+ or BACE1-null); assay: Y maze spontaneous alternation task; type: in vivo
From the text: (§2) Treatment usually last 2-4 months. […] For behavioral assays, Ro0711401 was deliver via IP injection at 12-hour intervals for 6-8 weeks. The mGluR1/5 positive allosteric modulator CHPG was mixed in aCSF and used during recording LTP.
The symmetrical Y maze made of acrylic consists of three arms separated by 120 degrees. Each arm is 40 cm long, 17 cm high, 4 cm wide at the bottom and 13 cm wide at the top. Each mouse was placed in the center of the Y maze and was allowed to explore freely through the maze during a 5 min session. The sequence and total number of arms entered was recorded. Arm entry was considered to be completed when the hind paws of the mouse had been completely placed in the arm. Percentage of alternations is the number of triads containing entries into all three arms divided by the maximum possible alternations (the total number of arms entered minus 2)×100. Statistics were calculated by Student's t tests.

[4] = test system: mice (WT BACE1+/+ or BACE1-null); assay: Morris water maze; type: in vivo
Procedure: as §2
The Morris water maze test was used to assess cognitive impairment. The apparatus consisted of a white circular tank (120 cm in diameter and 40 cm deep) filled with warm water (22° C.). The water was made to appear opaque using white nontoxic paint. A transparent platform (8 cm in diameter) was located in the middle of the southwest quadrant. Mice were subjected to four consecutive trials each day over a 3-day training period (with a flag attached to the platform) and then again for 5 days (no flag attached to platform) and the platform was submerged 0.5 cm below the water surface. Each mouse was released from four different positions around the perimeter of the tank (north, northwest, east, and southeast). In each trial, every mouse was allowed to swim until it found the platform (for a maximum of 60 s) and was subsequently left on the platform for 20 s between trials. If the platform was not found in 60 s, the mouse was guided to the platform and remained there for 20 s. The escape latency to find the hidden platform was automatically recorded using a video tracking system (Any-maze, San Diego instruments). At the end of the training on the eighth day, a probe test was conducted for […] on the 9th day. The platform was removed; each was released from the northeast quadrant and was allowed to swim for 60 s. Memory retention was measured by quantifying the time spent in the target quadrant, the number of entries made into the southwest quadrant, and the number of crossings over the previous platform location. Statistics were calculated by Student's t tests. Values are expressed as mean±SEM.

[5] = test system: mice (WT BACE1+/+ or BACE1-null); assay: Open field test; type: in vivo
Procedure: as §2
Each subject was released in the middle of the arena and observed for 10 minutes. Performance in the open field was recorded by a computer-based video tracking system (Any maze™ software, San Diego instruments, USA). Activity measures included distance traveled, percentage of time spent in corners vs. the center of the arena, and speed of movement during active exploration. The number of entries to the central zone of the open field was also recorded. Statistics were calculated by Student's t tests.

[6] = test system: synaptic proteins PSD95, mGluR2, Synaptophysin in synaptosome fraction; assay: Western analysis of synaptic proteins in synaptosomes from treated animals; type: in vivo, mice; conditions: chronic treatment, Lanabecestat 0.5 mg/kg or Verubecestat 3 mg/kg
Procedure: as §1
Synaptosome isolation was performed using Thermo Scientific Syn-PER Synaptic Protein Extraction Reagent (cat #87793) from whole brain samples. Briefly, mice were sacrificed by live decapitation, and rapidly dissected hippocampi were homogenized in Syn-Per reagent, ˜1 ml/100 mg tissue. Samples were then centrifuged at 1200×g for 10 min. The resulting supernatant was then centrifuged at 15,000×g for 20 min. Pellets (synaptosomes) were resuspended in buffer B ([…] in 6 mm Tris, pH 8.0) with 1% SDS, briefly sonicated, and frozen in −80° C. Total protein extraction was performed according to previously-described procedures (Hu et al., 2007). Brain samples were homogenized in radioimmunoprecipitation assay (RIPA) buffer (50 mM Tris-HCl, pH 7.4, 1% NP-40, 0.25% sodium deoxycholate, 150 mM NaCl, 1 mM EDTA, 1 mM NaF, 1 mM Na3VO4, and a protease inhibitor cocktail [Roche]) and centrifuged at 13,200 rpm for 90 min. Equal amounts of protein were resolved on a NuPAGE Bis-Tris gel (Invitrogen) and transferred onto nitrocellulose membranes (Invitrogen). Subsequently, blots were incubated with primary antibodies 1:1,000 mGluR1 [AB_12551; Cell Signaling]; 1:1,000 PSD-95 [AB_36233; Cell Signaling]; 1:5,000 GluR1 [AB_05-855; Upstate]; 1:1,000 GluR2/3 [AB_07-598; Upstate]; 1:1,000 GluR4 [AB_06-308; Upstate]; 1:1,000 Homer [AB_8231; Cell Signaling]; 1:500 TMEM25 [AB_24361-1-AP; ProteinTech Group]; 1:1,000 Bassoon [AB_141021; Synaptic Systems]; 1:10,000 Actin [AB_A5441; Sigma], overnight at 4° C. After extensive washing, blots were reacted with HRP-conjugated secondary antibodies and visualized using enhanced chemiluminescence (Thermo Scientific).

[7] = BACE1-null mice, 10 mg/kg i.p. every 12 hours, vs mock treatment

SMILES: O=C(Nc1nc(C(F)(F)F)co1)C1c2ccccc2Oc2ccccc21 [Ro0711401, N-[4-(trifluoromethyl)-1,3-oxazol-2-yl]-9H-xanthene-9-carboxamide]
- LTP from acutely-sectioned brain slices vs vehicle ([1]; 4-6 month old BACE1-null mice, 10 mg/kg i.p. one hour before sacrifice): significantly enhanced
- LTP after chronic treatment ([1]; BACE1-null mice, Ro0711401 10 mg/kg i.p. every 12 hours for about two months, after the behavioral tests): significantly elevated to the level close to that of WT mice
- brain penetrability [2]: brain-penetrable
- total numbers of arm entries (entrance performance) ([3]; BACE1-null mice, 10 mg/kg i.p. every 12 hours, about 45 days): improved entrance performance
- changes in percentage of spontaneous alternation among groups ([3]; WT, BACE1-null and BACE1-null with Ro0711401): not obvious
- number of entries made to the platform quadrant ([4]; 9th day probe, BACE1-null treated, WT 6.364±0.5094, BACE1-null 3.700±0.5385): 4.900±0.6403
- time to reach the platform, habituation day 3 ([4]; BACE1-null+Ro0711401 mice, BACE1-null 31.56±3.432 s, WT 8.098±1.318 s): 18.20 ± 3.203 s
- time to reach the platform, habituation day 1 ([4]; BACE1-null+Ro0711401 mice, BACE1-null 41.32±3.131 s, WT 21.99±2.986 s): 24.88 ± 2.935 s
- average distance covered to reach the platform over the trials ([4]; habituation and training phases, BACE1-null 3.872±0.7645, WT 1.205±0.2805): 1.909±0.3878 meters
- average duration to reach the platform of untreated BACE1-null mice relative to BACE1-null mice treated with Ro0711401 ([4]; training phase, 5 days, submerged platform, all trial days): significantly higher
- time spent in the center of the open field ([5]; BACE1-null mice after the treatment): more time spent in the center
- average speed in the open field arena [5, 7]: lowered
- total distance covered in the open field arena [5, 7]: lowered

SMILES: NC(C(=O)O)c1cc(O)ccc1Cl (racemic) [CHPG, (RS)-2-Chloro-5-hydroxyphenylglycine]
- LTP response vs mock treated slices ([1]; BACE1-null slices pre-treated with 125 nM for 30 min): significantly improved
- LTP response vs mock treatment ([1]; CHPG bath on slices from WT mice treated with Lanabecestat 0.5 mg/kg for 60 days): slightly improved
- LTP response vs mock treatment ([1]; CHPG bath on slices from WT mice treated with Verubecestat 3 mg/kg for 60 days): markedly improved
- brain penetrability [2]: non-brain penetrable

SMILES: CN1C(N)=N[C@](C)(c2cc(NC(=O)c3ccc(F)cn3)ccc2F)CS1(=O)=O [Verubecestat]
- PSD95 level in synaptosome fraction [6]: significant decrease
- Synaptophysin level in synaptosome fraction [6]: significant decrease
- mGluR2 level in synaptosome fraction [6]: significant decrease
- LTP at SC-CA1 synapses ([1]; WT mice, daily oral Verubecestat 3 mg/kg or Lanabecestat 0.5 mg/kg for 2-4 months): significantly reduced
- potentiation at 30 minutes post-stimulation ([1]; slices from 4-6-month-old WT mice, Lanabecestat 0.5 mg/kg or Verubecestat 3 mg/kg, control slices 245.9±0.9864%): 113.1±1.353%
- brain penetrability [2]: brain-penetrable
